The format of this data set is physicochemical. How it is done:
A 1:1 mixture of Form I and Form II was suspended in isopropanol and agitated with a magnetic stirrer for 18 h in a tightly sealed glass […]. […] Subsequently the sample was filtered with a micro glass filter funnel (G3), dried and evacuated.

Structures are written as SMILES.

In the case of `COc1ccccc1OCCNCC(O)COc1cccc2[nH]c3ccccc3c12` (racemic) [Form I, (±)1-(4-carbazolyloxy)-3-[2-(2-methoxyphenoxy)ethylamno]-2-propanole], the “thermodynamic stability of the modification” value is “thermodynamically stable form”.
